No end group written: not given here.
Columns and labels:
[1] = test system: lens epithelial cell culture; details: range required for effective activity; cited from earlier work
[2] = Degradation of H2O2 by microperoxidase (ferroammonium sulfate/thiocyanate H2O2 assay); type: biochemical
Experimental: (FIG. 1A) Effect of cofactors on μPx-11 degradation of H2 O2. 300 μM hydrogen peroxide (H2 O2) was incubated with μPx-11 in 50 mM phosphate buffer, pH 7.0 at 25° C. in 1 ml. At indicated times, 50 μl aliquots were removed for H2 O2 assay as described in the Materials and Methods section. 50 mM phosphate buffer, pH 7.0 buffer+500 μM NADPH, buffer+1 mM ascorbate (Asc), buffer+3 μM (μPx-11), prior solution+500 μM NADPH, as the previous solution but with 1 mM Asc rather than NADPH. 20 μM μPx-11 in 50 mM phosphate buffer pH 7.0. The results represent the average±S.D. of 3 experiments in most cases.
(FIG. 1B) Stability of μPx-11 as measured by ability to degrade H2 O2. 300 μM H2 O2 in 2 ml of 50 mM phosphate buffer, pH. […] The levels of certain components (H2 O2, NADPH or Asc) were brought back to estimated starting concentrations based on prior experiments and the H2 O2 decay again measured. […]
(FIG. 1C) Concentration dependence of μPx-11 in the presence of Asc. […] The data is expressed as nmoles H2 O2 degraded per ml per minute per nmole μPx-11 in 1 ml. The initial H2 O2 degradation rate measured in the first minute is given. […]
H2 O2 was assayed by the method of Hildebrandt et al. (1978), as modified by Spector et al. (1993a) and is based on the oxidation of ferroammonium sulfate in the presence of potassium thiocyanate. […] Hydroxyl radical was determined as previously described (Spector et al., 1993a). […]

effect of H2O2 on peroxidase ([2]; absence of Asc) | Compound | toxicity [1] | ability to degrade H2O2 compared with μPx-11 ([2]; presence of 1 mM Asc)
– | CN(C)Cc1ccccc1[Se][Se]c1ccccc1CN(C)C [2,2'diselenobis (N,N dimethylamino)methyl benzene] | toxic in the μM (micromolar) range | –
inactivated | μPx-8: heme-peptide with the cytochrome C peptide segment containing residue 14 to 21 (CAQCHTVE; cysteine pairing not given here; also: heme-peptide, heme attachment not placed; UniProt P00004 15-22, looked up, fragment) | – | more active than μPx-11
– | O=c1c2ccccc2[se]n1-c1ccccc1 [Ebselen] | toxic in the μM (micromolar) range | –
